This note sets out measurements from US20090093521A1, “2, 5-Bis-Diamine [1,4] Benzoquinone-Derivatives” (priority 2005, published 2009).

In general, IC50 refers to the concentration that inhibits the measured activity by half. A higher IC50 goes with lower potency.

The target of test [1] is BuChE (Homo sapiens, UniProt P06276). The test can be described thus: biochemical. The conditions noted are these: Ellman method, saturating substrate, absorbance at 412 nm. In kind it is biochemical. (DTNB colorimetry detects thiols as they appear.)
Sequence of BuChE (P06276 29-602): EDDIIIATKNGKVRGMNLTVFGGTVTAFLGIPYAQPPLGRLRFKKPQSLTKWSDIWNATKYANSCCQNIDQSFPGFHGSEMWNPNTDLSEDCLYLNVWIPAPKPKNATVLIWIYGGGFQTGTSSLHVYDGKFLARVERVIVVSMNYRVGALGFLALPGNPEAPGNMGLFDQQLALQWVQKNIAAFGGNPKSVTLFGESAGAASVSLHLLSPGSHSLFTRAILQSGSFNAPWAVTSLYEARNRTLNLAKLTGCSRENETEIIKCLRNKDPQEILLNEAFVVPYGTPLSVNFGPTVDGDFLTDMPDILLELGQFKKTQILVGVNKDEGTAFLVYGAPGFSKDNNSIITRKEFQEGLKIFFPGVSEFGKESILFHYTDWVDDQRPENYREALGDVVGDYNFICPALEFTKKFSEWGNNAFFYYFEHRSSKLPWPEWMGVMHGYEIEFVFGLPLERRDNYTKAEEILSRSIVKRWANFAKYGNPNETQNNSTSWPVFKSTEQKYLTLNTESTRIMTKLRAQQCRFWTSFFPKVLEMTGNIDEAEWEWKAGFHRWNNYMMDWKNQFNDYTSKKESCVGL
For test [2], the target named is AChE (Homo sapiens, UniProt P22303). The test is classed as biochemical. The conditions noted are these: for IC50: Ellman method, saturating substrate (acetylthiocholine), absorbance at 412 nm; for Selectivity IC50 (BuChE)/IC50 (AchE): ratio of IC50 (BuChE) to IC50 (AChE), preference for AChE over BuChE.
Sequence of AChE (P22303 32-614): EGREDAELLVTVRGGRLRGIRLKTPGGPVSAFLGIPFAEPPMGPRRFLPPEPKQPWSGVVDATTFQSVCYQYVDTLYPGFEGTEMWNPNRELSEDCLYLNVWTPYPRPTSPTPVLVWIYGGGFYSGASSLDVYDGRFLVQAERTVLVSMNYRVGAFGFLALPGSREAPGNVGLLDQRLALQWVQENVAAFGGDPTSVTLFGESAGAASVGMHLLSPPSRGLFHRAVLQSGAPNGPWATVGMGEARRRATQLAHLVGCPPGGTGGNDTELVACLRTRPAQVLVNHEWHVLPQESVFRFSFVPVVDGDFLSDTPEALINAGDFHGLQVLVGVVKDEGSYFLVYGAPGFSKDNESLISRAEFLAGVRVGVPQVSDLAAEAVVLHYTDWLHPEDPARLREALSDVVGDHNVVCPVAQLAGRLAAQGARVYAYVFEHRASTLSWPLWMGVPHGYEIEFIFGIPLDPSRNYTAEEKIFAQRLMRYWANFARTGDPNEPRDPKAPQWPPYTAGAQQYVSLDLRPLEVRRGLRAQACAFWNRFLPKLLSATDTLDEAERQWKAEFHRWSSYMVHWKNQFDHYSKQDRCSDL

Consider `CCN(CCCCCCNC1=C(Br)C(=O)C(NCCCCCCN(CC)Cc2ccccc2OC)=C(Br)C1=O)Cc1ccccc1OC` [Compound 36, 2,5-bis-{6-[ethyl-(2-methoxy-benzyl)-amine]-hexylamine}-3,6-dibromine-[1,4]benzoquinone], for which the IC50 in test [1] worked out at 800 ± 62 nM. In test [2], the half-maximal inhibitory concentration (IC50) is 2.66 ± 0.19 nM and the “Selectivity IC50 (BuChE)/IC50 (AchE)” value was determined as 300.

As for `CCN(CCCCCCNC1=C(F)C(=O)C(NCCCCCCN(CC)Cc2ccccc2OC)=C(F)C1=O)Cc1ccccc1OC` [Compound 35, 2,5-bis-{6-[ethyl-(2-methoxy-benzyl)-amine]-hexylamine}-3,6-difluorine-[1,4]benzoquinone], the IC50 was 1520 ± 90 nM in test [1] and 5.17 ± 0.17 nM in test [2]. The “Selectivity IC50 (BuChE)/IC50 (AchE)” value in test [2] is 294.
